According to US11540518B2, “Fungicidal oxadiazoles” (FMC Corporation, priority 2017, dated 2023):

Tests used:
[1] = tested on: Puccinia recondita f. sp. tritici; test: Test C: wheat leaf rust control on wheat seedlings; type: in vivo; details: sprayed to run-off on wheat seedlings, inoculated the following day, 100 = 100% disease control, 0 = no control; for pest or weed control at 10 ppm: Puccinia recondita, 168 h, read-out: Test C disease control rating
Text: General protocol for preparing test suspensions for Tests A-C: the test compounds were first dissolved in acetone in an amount equal to 3% of the final volume and then suspended at the desired concentration (in ppm) in acetone and purified water (50/50 mix by volume) containing 250 ppm of the surfactant PEG400 (polyhydric alcohol esters). The resulting test suspensions were then used in Tests A-C. The test solution was sprayed to the point of run-off on wheat seedlings. The following day the seedlings were inoculated with a spore suspension of Puccinia recondita f. sp. tritici (the causal agent of wheat leaf rust) and incubated in a saturated atmosphere at 20° C. for 24 h, and then moved to a growth chamber at 20° C. for 6 days, after which time disease ratings were made. Results for Tests A-C are given in Table A. In the Table, a rating of 100 indicates 100% disease control and a rating of 0 indicates no disease control (relative to the controls). A dash (-) indicates the compound was not tested.

[2] = tested on: Phakopsora pachyrhizi; test: Test A: Asian soybean rust control on soybean seedlings; type: in vivo; details: sprayed to run-off on soybean seedlings, inoculated the following day, 100 = 100% disease control, 0 = no control; for pest or weed control at 10 ppm: Phakopsora pachyrhizi, 216 h, read-out: Test A disease control rating
Text: General protocol for preparing test suspensions for Tests A-C: the test compounds were first dissolved in acetone in an amount equal to 3% of the final volume and then suspended at the desired concentration (in ppm) in acetone and purified water (50/50 mix by volume) containing 250 ppm of the surfactant PEG400 (polyhydric alcohol esters). The resulting test suspensions were then used in Tests A-C.
The test solution was sprayed to the point of run-off on soybean seedlings. The following day the seedlings were inoculated with a spore suspension of Phakopsora pachyrhizi (the causal agent of Asian soybean rust) and incubated in a saturated atmosphere at 22° C. for 24 h, and then moved to a growth chamber at 22° C. for 8 days, after which time visual disease ratings were made.
Results for Tests A-C are given in Table A. In the Table, a rating of 100 indicates 100% disease control and a rating of 0 indicates no disease control (relative to the controls). A dash (-) indicates the compound was not tested.

Compound	Test C disease control rating ([1]; 10 ppm) [%]	Test A disease control rating ([2]; 10 ppm) [%]	Test C disease control rating ([1]; 50 ppm) [%]	Test A disease control rating ([2]; 50 ppm) [%]	other results
CCNC(=O)OC(C)c1ccc(-c2noc(C(F)(F)F)n2)cc1 (racemic) [Compound 19]	74	100			
COC(=O)c1ccc(CNC(=O)OC(C)c2ccc(-c3noc(C(F)(F)F)n3)cc2)cc1 (racemic) [Compound 25]	26	100			
CCOC(=O)c1ccc(CNC(=O)OC(C)c2ccc(-c3noc(C(F)(F)F)n3)cc2)cc1 (racemic) [Compound 27]	0	100			
CCNC(=O)OCCCc1ccc(-c2noc(C(F)(F)F)n2)cc1 [Compound 20]	99	100			
O=C(OCCCc1ccc(-c2noc(C(F)(F)F)n2)cc1)n1ccnc1 [Compound 21]			99	100	
O=C(Nc1cccnc1)OCc1ccc(-c2noc(C(F)(F)F)n2)cc1 [Compound 22]	97	99			
CC(OC(=O)Nc1cccnc1)c1ccc(-c2noc(C(F)(F)F)n2)cc1 (centres unmarked) [Compound 23, 1-[4-[5-(trifluoromethyl)-1,2,4-oxadiazol-3-yl]phenyl]ethyl N-3-pyridinylcarbamate]					pest or weed control at 10 ppm ([1]; 10 ppm): 97%; pest or weed control at 10 ppm ([2]; 10 ppm): 100%
COC(=O)c1ccc(CNC(=O)OCc2ccc(-c3noc(C(F)(F)F)n3)cc2)cc1 [Compound 24]	68	13			
CCOC(=O)c1ccc(CNC(=O)OCc2ccc(-c3noc(C(F)(F)F)n3)cc2)cc1 [Compound 26]	26	95			
CN(C)C(=O)OCCCc1ccc(-c2noc(C(F)(F)F)n2)cc1 [Compound 28]	40	100			
C=CCNC(=O)OCCCc1ccc(-c2noc(C(F)(F)F)n2)cc1 [Compound 29]	74	100			
C#CCNC(=O)OCCCc1ccc(-c2noc(C(F)(F)F)n2)cc1 [Compound 30]	99	100			
CNC(=O)OCCCc1ccc(-c2noc(C(F)(F)F)n2)cc1 [Compound 31]	99	100			
O=C(Nc1cccnc1)OCCc1ccc(-c2noc(C(F)(F)F)n2)cc1 [Compound 34]			98	100	
O=C(Nc1cccnc1)OCCCc1ccc(-c2noc(C(F)(F)F)n2)cc1 [Compound 35]			100	100	
CC#CCNC(=O)OCc1ccc(-c2noc(C(F)(F)F)n2)cc1 [Compound 36]	100	100			
C#CCNC(=O)OCc1ccc(-c2noc(C(F)(F)F)n2)s1 [Compound 37]			100	100	
O=C(OCCc1ccc(-c2noc(C(F)(F)F)n2)cc1)n1ccnc1 [Compound 40, 2-[4-[5-(trifluoromethyl)-1,2,4-oxadiazol-3-yl]phenyl]ethyl-1H-imidazole-1-carboxylate]					pest or weed control at 10 ppm ([1]; 10 ppm): 18%; pest or weed control at 10 ppm ([2]; 10 ppm): 0%
NC(=O)OCCc1ccc(-c2noc(C(F)(F)F)n2)cc1 [Compound 41]	99	100			
CN(C)C(=O)OCCc1ccc(-c2noc(C(F)(F)F)n2)cc1 [Compound 44]	41	100			
C#CCNC(=O)OCCc1ccc(-c2noc(C(F)(F)F)n2)cc1 [Compound 45]	93	100			
COC(=O)c1ccc(NC(=O)OCc2ccc(-c3noc(C(F)(F)F)n3)cc2)cc1 [Compound 47]			41	100	
COC(=O)c1ccc(NC(=O)OC(C)c2ccc(-c3noc(C(F)(F)F)n3)cc2)cc1 (centres unmarked) [Compound 48]			97	100	
COC(=O)c1ccc(NC(=O)OCCc2ccc(-c3noc(C(F)(F)F)n3)cc2)cc1 [Compound 49]			0	96	
COC(=O)c1ccc(NC(=O)OCCCc2ccc(-c3noc(C(F)(F)F)n3)cc2)cc1 [Compound 50]			0	0	

Compound	Test C disease control rating ([1]; 10 ppm) [%]	Test A disease control rating ([2]; 10 ppm) [%]	Test C disease control rating ([1]; 50 ppm) [%]	Test A disease control rating ([2]; 50 ppm) [%]	other results
C=CCNC(=O)OCc1ccc(-c2noc(C(F)(F)F)n2)cc1 [Compound 51]	99	100			
CCN(C)C(=O)OCc1ccc(-c2noc(C(F)(F)F)n2)cc1 [Compound 52]	68	100			
CCN(CC)C(=O)OCc1ccc(-c2noc(C(F)(F)F)n2)cc1 [Compound 53]	68	100			
O=C(NC1CC1)OCc1ccc(-c2noc(C(F)(F)F)n2)cc1 [Compound 54]	92	100			
N#CCNC(=O)OCc1ccc(-c2noc(C(F)(F)F)n2)cc1 [Compound 55]	86	100			
CCOC(=O)c1ccc(NC(=O)OCc2ccc(-c3noc(C(F)(F)F)n3)cc2)cc1 [Compound 57]	0	100			
CCOC(=O)c1ccc(NC(=O)OC(C)c2ccc(-c3noc(C(F)(F)F)n3)cc2)cc1 (centres unmarked) [Compound 58]			79	100	
CCOC(=O)c1ccc(NC(=O)OCCc2ccc(-c3noc(C(F)(F)F)n3)cc2)cc1 [Compound 59]			0	96	
CCOC(=O)c1ccc(NC(=O)OCCCc2ccc(-c3noc(C(F)(F)F)n3)cc2)cc1 [Compound 60]			0	0	
C#CCNC(=O)OC(C)c1ccc(-c2noc(C(F)(F)F)n2)s1 (centres unmarked) [Compound 61]	100	100			
CC#CCNC(=O)OC(C)c1ccc(-c2noc(C(F)(F)F)n2)cc1 (centres unmarked) [Compound 62]			100	100	
CC#CCNC(=O)OCCc1ccc(-c2noc(C(F)(F)F)n2)cc1 [Compound 63]			100	100	
CC#CCNC(=O)OCCCc1ccc(-c2noc(C(F)(F)F)n2)cc1 [Compound 64]			100	100	
C#CCCNC(=O)OCCCc1ccc(-c2noc(C(F)(F)F)n2)cc1 [Compound 65]			100	100	
C#CCCNC(=O)OCCc1ccc(-c2noc(C(F)(F)F)n2)cc1 [Compound 66]			100	100	
C#CCCNC(=O)OC(C)c1ccc(-c2noc(C(F)(F)F)n2)cc1 (centres unmarked) [Compound 67]			100	100	
CCOC(=O)c1ccc(CNC(=O)OCCc2ccc(-c3noc(C(F)(F)F)n3)cc2)cc1 [Compound 68]			0	99	
CCOC(=O)c1ccc(CNC(=O)OCCCc2ccc(-c3noc(C(F)(F)F)n3)cc2)cc1 [Compound 69]			0	100	
CC(OC(=O)n1ccnc1)c1ccc(-c2noc(C(F)(F)F)n2)cc1 (centres unmarked) [Compound 70]	68	99			
CNC(=O)OC(C)c1ccc(-c2noc(C(F)(F)F)n2)cc1 (centres unmarked) [Compound 71]	83	100			
CCCNC(=O)OC(C)c1ccc(-c2noc(C(F)(F)F)n2)cc1 (centres unmarked) [Compound 73]	68	100			
CCCNC(=O)OC(C)c1ccc(-c2noc(C(F)(F)F)n2)s1 (centres unmarked) [Compound 74]	98	100			
NC(=O)OCc1ccc(-c2noc(C(F)(F)F)n2)o1 [Compound 80]	0	0			
C#CCNC(=O)OCc1ccc(-c2noc(C(F)(F)F)n2)o1 [Compound 81]	45	0			
